For the assay, the target named is T1, human A2a receptor (Homo sapiens, UniProt P29274).
T1 construct: purchased Perkin-Elmer RBHA2AM400UA; host or cells: HEK293 cells (membranes)
The assay is described as follows: A2a competition binding assay, Scintillation Proximity technology. Particulars: membranes from HEK293 cells expressing human A2a receptor; Ki by Cheng-Prusoff equation. The method in brief: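 Membranes from HEK293 cells expressing human A2a, adenosine deaminase-treated, incubated 1 h at room temperature with compound (3000 to 0.15 nM) and 0.5 nM tritiated pyrazolotriazolopyrimidine radioligand on WGA SPA beads in Ca/Mg-free PBS + 10 mM MgCl2. Non-specific binding with 1 μM CGS15943; Ki by Cheng-Prusoff.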
On the technique in general: Scintillation proximity formats need no separation of bound from free tracer.

The structures appear in SMILES notation.

In general, Ki refers to a measure of affinity in units of concentration, obtained from inhibition or displacement. Higher therefore signals lower affinity.

T1 sequence (P29274 whole entry): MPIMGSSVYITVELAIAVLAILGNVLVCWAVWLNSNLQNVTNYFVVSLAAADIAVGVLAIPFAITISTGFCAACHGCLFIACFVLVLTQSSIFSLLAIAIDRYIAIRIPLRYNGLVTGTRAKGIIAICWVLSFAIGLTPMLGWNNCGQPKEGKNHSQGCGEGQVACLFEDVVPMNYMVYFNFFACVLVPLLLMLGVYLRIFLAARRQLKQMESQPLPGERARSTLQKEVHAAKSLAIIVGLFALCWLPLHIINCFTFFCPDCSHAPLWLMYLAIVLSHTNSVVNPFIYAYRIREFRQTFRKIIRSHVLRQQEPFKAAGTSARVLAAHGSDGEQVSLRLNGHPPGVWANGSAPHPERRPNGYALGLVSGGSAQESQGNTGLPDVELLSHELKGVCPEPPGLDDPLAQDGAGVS

Consider `CN(Cc1cccc2cccnc12)C(=O)c1nc(Cl)c(-n2nccn2)nc1N` [Ex-290, 3-amino-6-chloro-N-methyl-N-(quinolin-8-ylmethyl)-5-(2H-1,2,3-triazol-2-yl)pyrazine-2-carboxamide], for which the Ki stood at 318 nM.

The molecule `Nc1nc(-n2nccn2)c(Cl)nc1C(=O)N1CCc2cccc(Br)c2C1` [Ex-292, 3-[(8-bromo-3,4-dihydroisoquinolin-2(1H)-yl)carbonyl]-5-chloro-6-(2H-1,2,3-triazol-2-yl)pyrazin-2-amine] showed a Ki of 54.8 nM. Compared with the last molecule, the Ki is about 5.8-fold lower.

Consider `Nc1nc(-n2nccn2)c(Cl)nc1C(=O)NC1CCNc2ccccc21` (stereo not shown) [Ex-293, 3-amino-6-chloro-N-(1,2,3,4-tetrahydroquinolin-4-yl)-5-(2H-1,2,3-triazol-2-yl)pyrazine-2-carboxamide], for which the affinity, expressed as Ki, was 107 nM.

In turn, `COc1ccc(CCNC(=O)c2nc(Cl)c(-n3nccn3)nc2N)cc1OC` [Ex-294, 3-amino-6-chloro-N-[2-(3,4-dimethoxyphenyl)ethyl]-5-(2H-1,2,3-triazol-2-yl)pyrazine-2-carboxamide] displayed a Ki of 68.8 nM.

`Nc1nc(-n2nccn2)c(Cl)nc1C(=O)NCc1cnn2ccccc12` [Ex-295, 3-amino-6-chloro-N-(pyrazolo[1,5-a]pyridin-3-ylmethyl)-5-(2H-1,2,3-triazol-2-yl)pyrazine-2-carboxamide] gave a Ki of 13.6 nM.

Turning to `Nc1nc(-n2nccn2)c(Cl)nc1C(=O)NCc1cccc2cnccc12` [Ex-296, 3-amino-6-chloro-N-(isoquinolin-5-ylmethyl)-5-(2H-1,2,3-triazol-2-yl)pyrazine-2-carboxamide], affinity was put at a Ki of 35.6 nM.

In turn, `Nc1nc(-n2nccn2)c(Cl)nc1C(=O)NCc1cccc2ccncc12` [Ex-297, 3-amino-6-chloro-N-(isoquinolin-8-ylmethyl)-5-(2H-1,2,3-triazol-2-yl)pyrazine-2-carboxamide] returned an inhibition constant Ki of 1.65 nM.

Molecule `Nc1nc(-n2nccn2)c(Cl)nc1C(=O)NCc1nc2ccccc2s1` [Ex-298, 3-amino-N-(1,3-benzothiazol-2-ylmethyl)-6-chloro-5-(2H-1,2,3-triazol-2-yl)pyrazine-2-carboxamide] registered an inhibition constant (Ki) of 32.9 nM.

The molecule `Nc1nc(-n2nccn2)c(Cl)nc1C(=O)NCc1nc2ccccc2o1` [Ex-299, 3-amino-N-(1,3-benzoxazol-2-ylmethyl)-6-chloro-5-(2H-1,2,3-triazol-2-yl)pyrazine-2-carboxamide] gave a Ki of 33.6 nM.

`Nc1nc(-n2nccn2)c(Cl)nc1C(=O)NCc1cccc2nccnc12` [Ex-300, 3-amino-6-chloro-N-(quinoxalin-5-ylmethyl)-5-(2H-1,2,3-triazol-2-yl)pyrazine-2-carboxamide] registered a Ki of 44.4 nM.

Molecule `Nc1nc(-n2nccn2)c(Cl)nc1C(=O)NCc1ccnc2ccccc12` [Ex-301, 3-amino-6-chloro-N-(quinolin-4-ylmethyl)-5-(2H-1,2,3-triazol-2-yl)pyrazine-2-carboxamide] came in with a Ki of 182 nM.

Molecule `Nc1nc(-n2nccn2)c(Cl)nc1C(=O)NCc1nc2ccccc2[nH]1` [Ex-302, 3-amino-N-(1H-benzimidazol-2-ylmethyl)-6-chloro-5-(2H-1,2,3-triazol-2-yl)pyrazine-2-carboxamide] displayed a Ki of 28.3 nM.

Consider `Nc1ccccc1CNC(=O)c1nc(Cl)c(-n2nccn2)nc1N` [Ex-303, 3-amino-N-(2-aminobenzyl)-6-chloro-5-(2H-1,2,3-triazol-2-yl)pyrazine-2-carboxamide], for which the Ki was determined as 14.4 nM.

Turning to `Nc1cccc(F)c1CNC(=O)c1nc(Cl)c(-n2nccn2)nc1N` [Ex-304, 3-amino-N-(2-amino-6-fluorobenzyl)-6-chloro-5-(2H-1,2,3-triazol-2-yl)pyrazine-2-carboxamide], the Ki is 3.6 nM.

`Nc1nc(-n2nccn2)c(Cl)nc1C(=O)NCc1cnc2ccccn12` [Ex-305, 3-amino-6-chloro-N-(imidazo[1,2-a]pyridin-3-ylmethyl)-5-(2H-1,2,3-triazol-2-yl)pyrazine-2-carboxamide] yielded a Ki of 49.5 nM. This Ki lies about 14-fold higher than the previous one.

Turning to `Nc1nc(-n2nccn2)c(Cl)nc1C(=O)NCc1ccc2ccccc2n1` [Ex-306, 3-amino-6-chloro-N-(quinolin-2-ylmethyl)-5-(2H-1,2,3-triazol-2-yl)pyrazine-2-carboxamide], affinity was put at a Ki of 48.6 nM.

Turning to `Nc1nc(-n2nccn2)c(Cl)nc1C(=O)NCc1cc2ccccc2cn1` [Ex-307, 3-amino-6-chloro-N-(isoquinolin-3-ylmethyl)-5-(2H-1,2,3-triazol-2-yl)pyrazine-2-carboxamide], the Ki was found to be 21.6 nM. This Ki is about 2.2-fold lower than that of the molecule before.

`Nc1nc(-n2nccn2)c(Cl)nc1C(=O)NCc1cc2ccccc2[nH]1` [Ex-308, 3-amino-6-chloro-N-(1H-indol-2-ylmethyl)-5-(2H-1,2,3-triazol-2-yl)pyrazine-2-carboxamide]: the Ki was found to be 34.5 nM. This Ki is about 1.6-fold higher than that of the molecule before.

In turn, `Nc1nc(-n2nccn2)c(Cl)nc1C(=O)NCc1cccc2ncccc12` [Ex-309, 3-amino-6-chloro-N-(quinolin-5-ylmethyl)-5-(2H-1,2,3-triazol-2-yl)pyrazine-2-carboxamide] displayed a Ki of 180 nM.

For the molecule `Nc1nc(-n2nccn2)c(Cl)nc1C(=O)NCc1cn2ccsc2n1` [Ex-310, 3-amino-6-chloro-N-(imidazo[2,1-b][1,3]thiazol-6-ylmethyl)-5-(2H-1,2,3-triazol-2-yl)pyrazine-2-carboxamide], the Ki stood at 15.7 nM.

Consider `Nc1nc(-n2nccn2)c(Cl)nc1C(=O)NCCc1cnccn1` [Ex-311, 3-amino-6-chloro-N-(2-pyrazin-2-ylethyl)-5-(2H-1,2,3-triazol-2-yl)pyrazine-2-carboxamide], for which the Ki worked out at 1160 nM.

For the molecule `Nc1nc(-n2nccn2)c(Cl)nc1C(=O)N[C@@H](CO)c1ccccc1` [Ex-312, 3-amino-6-chloro-N-[(1R)-2-hydroxy-1-phenylethyl]-5-(2H-1,2,3-triazol-2-yl)pyrazine-2-carboxamide], the Ki was 607 nM.

Turning to `Nc1nc(-n2nccn2)c(Cl)nc1C(=O)N[C@H](CO)c1ccccc1` [Ex-313, 3-amino-6-chloro-N-[(1S)-2-hydroxy-1-phenylethyl]-5-(2H-1,2,3-triazol-2-yl)pyrazine-2-carboxamide], affinity was put at a Ki of 22.8 nM.

`Nc1nc(-n2nccn2)c(Cl)nc1C(=O)NCc1cccc2c1C(=O)NC2` [Ex-314, 3-amino-6-chloro-N-[(3-oxo-2,3-dihydro-1H-isoindol-4-yl)methyl]-5-(2H-1,2,3-triazol-2-yl)pyrazine-2-carboxamide] displayed a Ki of 3.7 nM.

As for `Nc1nc(-n2nccn2)c(Cl)nc1C(=O)NCCOc1ccccc1` [Ex-315, 3-amino-6-chloro-N-(2-phenoxyethyl)-5-(2H-1,2,3-triazol-2-yl)pyrazine-2-carboxamide], the affinity corresponds to a Ki of 195 nM.

For `Nc1nc(-n2nccn2)c(Cl)nc1C(=O)N[C@@H]1C[C@@]1(F)c1ccccc1` [Ex-316, 3-amino-6-chloro-N-[(1R,2R)-2-fluoro-2-phenylcyclopropyl]-5-(2H-1,2,3-triazol-2-yl)pyrazine-2-carboxamide], the affinity, expressed as Ki, was 66.9 nM.

`Nc1nc(-n2nccn2)c(Cl)nc1C(=O)N[C@H]1C[C@@]1(F)c1ccccc1` [Ex-317, 3-amino-6-chloro-N-[(1S,2R)-2-fluoro-2-phenylcyclopropyl]-5-(2H-1,2,3-triazol-2-yl)pyrazine-2-carboxamide] returned a Ki of 2200 nM. Against the preceding molecule, the Ki is about 33-fold higher.

As to `COC(=O)[C@@H](CO)NC(=O)c1nc(Cl)c(-n2nccn2)nc1N` [Ex-318, methyl N-{[3-amino-6-chloro-5-(2H-1,2,3-triazol-2-yl)pyrazin-2-yl]carbonyl}-D-serinate], the Ki came out at 317 nM. Against the preceding molecule, the Ki is about 6.9-fold lower.

With `Nc1nc(-n2nccn2)c(Cl)nc1C(=O)NCC1CCCc2cccnc21` (stereo not shown) [Ex-319, 3-amino-6-chloro-N-(5,6,7,8-tetrahydroquinolin-8-ylmethyl)-5-(2H-1,2,3-triazol-2-yl)pyrazine-2-carboxamide], the Ki was 77.9 nM.

For the molecule `Nc1nc(-n2nccn2)c(Cl)nc1C(=O)N[C@H](CO)Cc1ccccc1` [Ex-320, 3-amino-N-[(1S)-1-benzyl-2-hydroxyethyl]-6-chloro-5-(2H-1,2,3-triazol-2-yl)pyrazine-2-carboxamide], the affinity corresponds to a Ki of 149 nM.

Turning to `Nc1nc(-n2nccn2)c(Cl)nc1C(=O)NCc1ncc[nH]1` [Ex-321, 3-amino-6-chloro-N-(1H-imidazol-2-ylmethyl)-5-(2H-1,2,3-triazol-2-yl)pyrazine-2-carboxamide], affinity was put at a Ki of 70.2 nM. Against the preceding molecule, the Ki is about 2.1-fold lower.

For `CN1CCC(NC(=O)c2nc(Cl)c(-n3nccn3)nc2N)c2ccccc21` (stereo not shown) [Ex-322, 3-amino-6-chloro-N-(1-methyl-1,2,3,4-tetrahydroquinolin-4-yl)-5-(2H-1,2,3-triazol-2-yl)pyrazine-2-carboxamide], affinity was put at a Ki of 61.9 nM.

Take `COC(=O)[C@@H](NC(=O)c1nc(Cl)c(-n2nccn2)nc1N)c1ccccc1` [Ex-323, methyl (2S)-({[3-amino-6-chloro-5-(2H-1,2,3-triazol-2-yl)pyrazin-2-yl]carbonyl}amino) (phenyl)ethanoate]: the affinity corresponds to a Ki of 65.3 nM.

As for `Nc1nc(-n2nccn2)c(Cl)nc1C(=O)N[C@H](CO)c1ccccn1` [Ex-324, 3-amino-6-chloro-N-[(1S)-2-hydroxy-1-pyridin-2-ylethyl]-5-(2H-1,2,3-triazol-2-yl)pyrazine-2-carboxamide], the affinity corresponds to a Ki of 54 nM.

In turn, `Nc1nc(-n2nccn2)c(Cl)nc1C(=O)N[C@H](CO)Cc1c[nH]c2ccccc12` [Ex-325, 3-amino-6-chloro-N-[(1S)-2-hydroxy-1-(1H-indol-3-ylmethyl)ethyl]-5-(2H-1,2,3-triazol-2-yl)pyrazine-2-carboxamide] registered a Ki of 337 nM. Compared with the last molecule, the Ki is about 6.2-fold higher.

Take `Cc1cccc(CNC(=O)c2nc(Cl)c(-n3nccn3)nc2N)n1` [Ex-326, 3-amino-6-chloro-N-[(6-methylpyridin-2-yl)methyl]-5-(2H-1,2,3-triazol-2-yl)pyrazine-2-carboxamide]: affinity was put at a Ki of 6.1 nM.

For `Nc1nc(-n2cncn2)c(Cl)nc1C(=O)NCc1ccccc1C(F)(F)F` [Ex-327, 3-amino-6-chloro-5-(1H-1,2,4-triazol-1-yl)-N-[2-(trifluoromethyl)benzyl] pyrazine-2-carboxamide], the Ki came to 55.7 nM.

The values above are taken from patent US10472347B2, “Aminopyrazine compounds with A2A antagonist properties” (Merck Sharp & Dohme Corp., priority 2014, dated 2019).
